Measurements published in ChEMBL document CHEMBL3991601, “The target landscape of clinical kinase drugs” (Science, 2017).
The source made the active and inactive calls.

Experiments:
[1] = target: Serine/threonine-protein kinase/endoribonuclease IRE1 (Homo sapiens, UniProt O75460)
[2] = target: T1, Serine/threonine-protein kinase NLK (Homo sapiens, UniProt Q9UBE8)
T1 sequence (Q9UBE8 whole entry): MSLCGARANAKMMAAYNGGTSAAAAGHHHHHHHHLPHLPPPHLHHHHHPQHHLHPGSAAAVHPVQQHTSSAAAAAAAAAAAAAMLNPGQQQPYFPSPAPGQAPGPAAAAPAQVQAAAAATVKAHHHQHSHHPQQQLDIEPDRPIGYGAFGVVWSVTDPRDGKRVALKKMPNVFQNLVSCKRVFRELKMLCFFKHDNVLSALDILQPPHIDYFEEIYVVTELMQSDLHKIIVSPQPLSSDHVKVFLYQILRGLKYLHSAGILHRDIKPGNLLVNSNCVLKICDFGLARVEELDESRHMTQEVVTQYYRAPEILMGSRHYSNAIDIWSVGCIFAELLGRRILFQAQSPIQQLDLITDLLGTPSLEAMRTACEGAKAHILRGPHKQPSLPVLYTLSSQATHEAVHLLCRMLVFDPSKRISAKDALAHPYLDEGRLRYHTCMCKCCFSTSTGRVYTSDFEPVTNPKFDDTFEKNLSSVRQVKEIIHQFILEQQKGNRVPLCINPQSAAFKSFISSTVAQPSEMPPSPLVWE

[3] = target: MAP/microtubule affinity-regulating kinase 3 (Homo sapiens, UniProt P27448)
Chain of MAP/microtubule affinity-regulating kinase 3 (P27448 whole entry): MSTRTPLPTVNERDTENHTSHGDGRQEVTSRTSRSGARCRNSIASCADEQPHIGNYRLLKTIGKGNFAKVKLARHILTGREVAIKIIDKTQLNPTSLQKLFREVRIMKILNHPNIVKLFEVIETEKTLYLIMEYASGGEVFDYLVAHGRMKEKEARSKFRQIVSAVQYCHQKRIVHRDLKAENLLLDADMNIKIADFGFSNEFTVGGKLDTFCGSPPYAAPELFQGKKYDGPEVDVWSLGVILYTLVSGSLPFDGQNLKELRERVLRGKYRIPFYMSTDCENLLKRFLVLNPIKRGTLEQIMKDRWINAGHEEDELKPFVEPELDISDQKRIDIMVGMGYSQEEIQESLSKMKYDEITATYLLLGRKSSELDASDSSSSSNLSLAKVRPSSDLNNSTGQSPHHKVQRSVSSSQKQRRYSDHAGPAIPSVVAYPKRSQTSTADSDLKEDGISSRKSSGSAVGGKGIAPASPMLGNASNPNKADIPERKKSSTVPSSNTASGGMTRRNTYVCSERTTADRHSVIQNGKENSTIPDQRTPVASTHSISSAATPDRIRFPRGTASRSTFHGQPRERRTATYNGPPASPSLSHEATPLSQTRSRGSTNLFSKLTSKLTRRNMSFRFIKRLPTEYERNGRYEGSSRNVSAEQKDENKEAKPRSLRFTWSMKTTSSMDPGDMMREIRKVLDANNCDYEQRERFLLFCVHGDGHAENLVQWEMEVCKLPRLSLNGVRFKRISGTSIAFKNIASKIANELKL

[4] = target: T2, Peroxisomal acyl-coenzyme A oxidase 1 (Homo sapiens, UniProt Q15067)
T2 sequence (Q15067 whole entry): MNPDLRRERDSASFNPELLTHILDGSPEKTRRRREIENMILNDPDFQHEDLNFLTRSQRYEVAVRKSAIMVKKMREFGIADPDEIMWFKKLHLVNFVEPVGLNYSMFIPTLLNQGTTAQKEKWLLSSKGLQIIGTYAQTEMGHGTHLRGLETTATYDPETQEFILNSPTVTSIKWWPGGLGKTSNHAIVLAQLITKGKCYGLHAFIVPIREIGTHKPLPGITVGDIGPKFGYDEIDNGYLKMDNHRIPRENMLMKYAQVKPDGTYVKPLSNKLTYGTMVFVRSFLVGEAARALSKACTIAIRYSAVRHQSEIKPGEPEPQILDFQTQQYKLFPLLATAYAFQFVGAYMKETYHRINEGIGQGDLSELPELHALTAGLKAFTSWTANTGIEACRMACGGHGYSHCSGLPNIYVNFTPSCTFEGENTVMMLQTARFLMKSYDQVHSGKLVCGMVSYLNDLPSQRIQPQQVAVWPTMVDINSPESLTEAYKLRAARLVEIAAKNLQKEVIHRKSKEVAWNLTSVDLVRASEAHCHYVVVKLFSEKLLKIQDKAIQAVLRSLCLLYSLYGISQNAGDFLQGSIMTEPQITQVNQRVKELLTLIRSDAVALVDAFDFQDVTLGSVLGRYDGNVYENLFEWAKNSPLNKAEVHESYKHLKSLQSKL

[5] = target: Glycogen synthase kinase-3 beta (Homo sapiens, UniProt P49841)
Chain of Glycogen synthase kinase-3 beta (P49841 whole entry): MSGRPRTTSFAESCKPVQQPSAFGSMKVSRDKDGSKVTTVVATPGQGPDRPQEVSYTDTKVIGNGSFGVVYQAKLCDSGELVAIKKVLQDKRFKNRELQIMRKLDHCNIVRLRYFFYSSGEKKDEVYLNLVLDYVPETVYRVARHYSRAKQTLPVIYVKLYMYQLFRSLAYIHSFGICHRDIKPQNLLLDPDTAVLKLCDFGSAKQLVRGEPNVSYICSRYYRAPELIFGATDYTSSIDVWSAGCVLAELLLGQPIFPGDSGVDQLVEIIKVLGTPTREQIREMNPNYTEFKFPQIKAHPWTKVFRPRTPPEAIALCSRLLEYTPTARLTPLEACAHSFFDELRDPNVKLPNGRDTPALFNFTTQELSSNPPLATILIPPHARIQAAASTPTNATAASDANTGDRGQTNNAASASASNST

[6] = target: Protein-tyrosine kinase 2-beta (Homo sapiens, UniProt Q14289)
Chain of Protein-tyrosine kinase 2-beta (Q14289 whole entry): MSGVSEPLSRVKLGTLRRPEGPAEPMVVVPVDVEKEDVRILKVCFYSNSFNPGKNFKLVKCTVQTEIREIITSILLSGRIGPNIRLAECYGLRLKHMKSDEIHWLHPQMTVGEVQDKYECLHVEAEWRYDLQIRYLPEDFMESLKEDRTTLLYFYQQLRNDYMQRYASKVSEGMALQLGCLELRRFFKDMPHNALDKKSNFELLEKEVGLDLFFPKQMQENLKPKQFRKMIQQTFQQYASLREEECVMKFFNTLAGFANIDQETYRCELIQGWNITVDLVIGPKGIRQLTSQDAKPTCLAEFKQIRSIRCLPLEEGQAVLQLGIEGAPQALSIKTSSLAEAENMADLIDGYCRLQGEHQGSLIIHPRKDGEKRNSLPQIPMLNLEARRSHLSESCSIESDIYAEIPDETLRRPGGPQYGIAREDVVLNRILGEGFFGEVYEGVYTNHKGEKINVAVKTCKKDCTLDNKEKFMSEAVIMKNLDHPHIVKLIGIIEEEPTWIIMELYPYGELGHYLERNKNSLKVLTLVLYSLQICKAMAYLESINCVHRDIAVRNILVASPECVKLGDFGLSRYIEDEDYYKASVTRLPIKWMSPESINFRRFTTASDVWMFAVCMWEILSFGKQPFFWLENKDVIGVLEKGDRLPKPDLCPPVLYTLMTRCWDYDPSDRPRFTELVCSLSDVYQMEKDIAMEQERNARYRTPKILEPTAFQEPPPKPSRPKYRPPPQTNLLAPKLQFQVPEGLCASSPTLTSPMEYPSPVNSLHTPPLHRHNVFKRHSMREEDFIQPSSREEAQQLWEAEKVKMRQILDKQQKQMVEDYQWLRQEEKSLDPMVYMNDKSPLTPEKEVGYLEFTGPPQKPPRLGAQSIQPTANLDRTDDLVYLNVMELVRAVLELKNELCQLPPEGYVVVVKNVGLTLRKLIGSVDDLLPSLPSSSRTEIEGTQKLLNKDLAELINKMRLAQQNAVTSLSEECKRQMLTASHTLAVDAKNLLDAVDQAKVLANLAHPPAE

ADP/ATP translocase 2 = target: T3, ADP/ATP translocase 2 (Homo sapiens, UniProt P05141)
T3 sequence (P05141 whole entry): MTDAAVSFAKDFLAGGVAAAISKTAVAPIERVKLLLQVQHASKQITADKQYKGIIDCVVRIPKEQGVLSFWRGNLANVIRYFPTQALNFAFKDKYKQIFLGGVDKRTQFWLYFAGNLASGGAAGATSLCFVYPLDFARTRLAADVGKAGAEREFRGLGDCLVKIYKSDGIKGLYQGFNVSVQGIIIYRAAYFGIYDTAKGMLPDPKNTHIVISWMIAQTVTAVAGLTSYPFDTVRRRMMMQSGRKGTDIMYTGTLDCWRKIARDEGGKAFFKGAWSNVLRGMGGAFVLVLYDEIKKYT

[7] = target: Mitogen-activated protein kinase 11 (Homo sapiens, UniProt Q15759)
Chain of Mitogen-activated protein kinase 11 (Q15759 whole entry): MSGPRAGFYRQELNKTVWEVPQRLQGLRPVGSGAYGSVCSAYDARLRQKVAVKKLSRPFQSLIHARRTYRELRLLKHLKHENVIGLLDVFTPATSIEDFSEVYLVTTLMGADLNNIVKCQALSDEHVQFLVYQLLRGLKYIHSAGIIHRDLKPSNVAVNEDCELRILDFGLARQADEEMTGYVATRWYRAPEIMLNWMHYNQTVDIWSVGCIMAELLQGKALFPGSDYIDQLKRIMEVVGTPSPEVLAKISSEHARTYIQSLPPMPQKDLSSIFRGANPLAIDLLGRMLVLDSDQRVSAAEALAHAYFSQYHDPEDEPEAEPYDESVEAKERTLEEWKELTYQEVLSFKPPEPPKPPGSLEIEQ

Septin-9 = target: T4, Septin-9 (Homo sapiens, UniProt Q9UHD8)
T4 sequence (Q9UHD8 whole entry): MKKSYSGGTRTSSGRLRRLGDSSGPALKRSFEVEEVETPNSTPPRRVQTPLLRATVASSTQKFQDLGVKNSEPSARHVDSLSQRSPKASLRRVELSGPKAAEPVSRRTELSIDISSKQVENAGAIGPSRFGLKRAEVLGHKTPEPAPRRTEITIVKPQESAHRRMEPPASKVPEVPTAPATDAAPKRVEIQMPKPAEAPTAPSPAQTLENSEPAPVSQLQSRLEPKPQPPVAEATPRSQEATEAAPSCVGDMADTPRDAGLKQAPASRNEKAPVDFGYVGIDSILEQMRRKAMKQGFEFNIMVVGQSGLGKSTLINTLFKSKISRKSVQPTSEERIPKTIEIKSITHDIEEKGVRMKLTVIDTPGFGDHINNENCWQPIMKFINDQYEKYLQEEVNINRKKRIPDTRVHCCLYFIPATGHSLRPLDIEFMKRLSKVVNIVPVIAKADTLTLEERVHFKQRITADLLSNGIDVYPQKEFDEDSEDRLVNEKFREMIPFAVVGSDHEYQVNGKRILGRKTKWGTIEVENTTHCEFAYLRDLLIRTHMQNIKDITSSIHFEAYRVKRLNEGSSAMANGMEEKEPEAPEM

[8] = target: T5, Serine/threonine-protein kinase STK11 (Homo sapiens, UniProt Q15831)
T5 sequence (Q15831 whole entry): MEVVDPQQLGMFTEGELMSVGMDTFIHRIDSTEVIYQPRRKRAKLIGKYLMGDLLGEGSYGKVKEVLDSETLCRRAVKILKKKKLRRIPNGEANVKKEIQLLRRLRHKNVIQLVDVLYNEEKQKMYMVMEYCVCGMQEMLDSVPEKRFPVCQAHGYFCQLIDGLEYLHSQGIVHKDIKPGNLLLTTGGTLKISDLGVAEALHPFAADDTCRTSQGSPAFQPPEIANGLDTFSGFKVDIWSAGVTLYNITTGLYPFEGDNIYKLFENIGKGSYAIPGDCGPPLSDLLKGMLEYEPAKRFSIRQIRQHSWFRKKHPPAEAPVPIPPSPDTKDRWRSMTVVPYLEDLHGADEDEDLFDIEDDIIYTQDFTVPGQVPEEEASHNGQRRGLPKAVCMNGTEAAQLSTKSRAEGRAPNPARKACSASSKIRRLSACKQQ
Also: in the data inactive means no Kd found up to 30 µM.

Chain of Serine/threonine-protein kinase/endoribonuclease IRE1 (O75460 whole entry): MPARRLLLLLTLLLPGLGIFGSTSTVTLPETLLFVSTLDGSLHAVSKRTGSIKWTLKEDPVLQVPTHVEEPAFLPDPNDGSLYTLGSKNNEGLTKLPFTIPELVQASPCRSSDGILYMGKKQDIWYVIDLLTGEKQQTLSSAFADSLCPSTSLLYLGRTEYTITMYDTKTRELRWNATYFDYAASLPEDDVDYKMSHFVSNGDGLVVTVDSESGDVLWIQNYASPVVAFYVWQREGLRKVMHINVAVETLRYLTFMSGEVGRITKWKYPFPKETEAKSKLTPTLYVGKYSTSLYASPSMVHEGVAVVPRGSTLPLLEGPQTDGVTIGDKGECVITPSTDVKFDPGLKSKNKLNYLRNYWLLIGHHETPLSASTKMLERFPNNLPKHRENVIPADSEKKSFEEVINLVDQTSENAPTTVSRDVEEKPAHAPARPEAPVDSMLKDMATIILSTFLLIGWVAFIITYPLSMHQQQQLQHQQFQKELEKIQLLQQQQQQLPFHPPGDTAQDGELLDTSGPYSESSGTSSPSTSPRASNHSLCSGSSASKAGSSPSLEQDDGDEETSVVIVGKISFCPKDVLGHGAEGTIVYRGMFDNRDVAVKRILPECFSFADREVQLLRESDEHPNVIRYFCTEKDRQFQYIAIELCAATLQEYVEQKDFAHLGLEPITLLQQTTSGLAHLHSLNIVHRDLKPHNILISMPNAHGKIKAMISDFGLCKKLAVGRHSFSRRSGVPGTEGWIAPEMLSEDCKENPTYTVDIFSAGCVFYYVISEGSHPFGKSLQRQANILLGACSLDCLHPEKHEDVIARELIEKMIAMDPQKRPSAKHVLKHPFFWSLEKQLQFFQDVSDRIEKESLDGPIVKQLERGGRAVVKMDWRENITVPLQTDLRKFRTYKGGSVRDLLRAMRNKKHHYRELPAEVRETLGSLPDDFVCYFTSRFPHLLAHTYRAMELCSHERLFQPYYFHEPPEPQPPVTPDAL

SMILES	Kd [1]	Kd [2]	Kd [3]	Kd [4]	Kd [5]	Kd [6]	Kd (ADP/ATP translocase 2)	Kd [7]	Kd (Septin-9)	Kd [8]
CCNC(=O)C#Cc1ccc2c(c1)NC(=O)/C2=C(\Nc1ccc(CN(C)C)cc1)c1ccccc1	> 30 µM (inactive)	> 30 µM (inactive)	> 30 µM (inactive)	> 30 µM (inactive)	> 30 µM (inactive)	> 30 µM (inactive)	> 30 µM (inactive)	> 30 µM (inactive)	> 30 µM (inactive)	> 30 µM (inactive)
COCc1c(-c2ccc(NC(=O)Nc3cc(C(F)(F)F)ccc3F)c(F)c2)c2c(N)ncnn2c1CN1CCOCC1	> 30 µM (inactive)	> 30 µM (inactive)	> 30 µM (inactive)	> 30 µM (inactive)	> 30 µM (inactive)	> 30 µM (inactive)	> 30 µM (inactive)	> 30 µM (inactive)	> 30 µM (inactive)	> 30 µM (inactive)
Cc1nc(NC(=O)N2CCC[C@H]2C(N)=O)sc1-c1ccnc(C(C)(C)C(F)(F)F)c1 [ALPELISIB]	> 30 µM (inactive)	–	> 30 µM (inactive)	> 30 µM (inactive)	> 30 µM (inactive)	> 30 µM (inactive)	> 30 µM (inactive)	–	> 30 µM (inactive)	> 30 µM (inactive)
CNC(=O)c1ccccc1Sc1ccc2c(/C=C/c3ccccn3)n[nH]c2c1 [AXITINIB]	–	–	–	> 30 µM (inactive)	–	–	> 30 µM (inactive)	–	> 30 µM (inactive)	–
COc1cc([C@@H]2c3cc4c(cc3[C@H](O)[C@H]3COC(=O)[C@@H]23)OCO4)cc(OC)c1OC [AXL-1717]	> 30 µM (inactive)	> 30 µM (inactive)	> 30 µM (inactive)	> 30 µM (inactive)	> 30 µM (inactive)	> 30 µM (inactive)	> 30 µM (inactive)	> 30 µM (inactive)	> 30 µM (inactive)	> 30 µM (inactive)
NC(=O)Nc1cc(-c2cccc(F)c2)sc1C(=O)N[C@H]1CCCNC1 [AZD-7762]	–	> 30 µM (inactive)	–	> 30 µM (inactive)	> 30 µM (inactive)	0.608 µM (active)	> 30 µM (inactive)	> 30 µM (inactive)	> 30 µM (inactive)	> 30 µM (inactive)
Cn1cnc2c(F)c(Nc3ccc(Br)cc3F)c(C(=O)NOCCO)cc21 [BINIMETINIB]	> 30 µM (inactive)	> 30 µM (inactive)	> 30 µM (inactive)	> 30 µM (inactive)	> 30 µM (inactive)	> 30 µM (inactive)	> 30 µM (inactive)	> 30 µM (inactive)	> 30 µM (inactive)	> 30 µM (inactive)
CNC(=O)c1cccc2cc(Oc3ccnc4cc(OCC5(N)CC5)c(OC)cc34)ccc12 [LUCITANIB]	> 30 µM (inactive)	> 30 µM (inactive)	> 30 µM (inactive)	> 30 µM (inactive)	> 30 µM (inactive)	> 30 µM (inactive)	> 30 µM (inactive)	> 30 µM (inactive)	> 30 µM (inactive)	> 30 µM (inactive)
CN(C[C@@H]1COCCO1)S(=O)(=O)Nc1ccc2ccc3ncc(-c4cnn(C)c4)cc3c(=O)c2c1 [MK-2461]	> 30 µM (inactive)	> 30 µM (inactive)	> 30 µM (inactive)	> 30 µM (inactive)	> 30 µM (inactive)	> 30 µM (inactive)	> 30 µM (inactive)	> 30 µM (inactive)	> 30 µM (inactive)	> 30 µM (inactive)
FC(F)(F)c1ccc(/C=C/c2nc(COc3ccc(CCCCn4ccnn4)cc3)co2)cc1 [MUBRITINIB]	> 30 µM (inactive)	> 30 µM (inactive)	> 30 µM (inactive)	> 30 µM (inactive)	> 30 µM (inactive)	> 30 µM (inactive)	> 30 µM (inactive)	> 30 µM (inactive)	> 30 µM (inactive)	> 30 µM (inactive)
CCCCCCCCCCCCCCCCCCOP(=O)([O-])OC1CC[N+](C)(C)CC1 [PERIFOSINE]	> 30 µM (inactive)	> 30 µM (inactive)	> 30 µM (inactive)	> 30 µM (inactive)	> 30 µM (inactive)	> 30 µM (inactive)	> 30 µM (inactive)	> 30 µM (inactive)	> 30 µM (inactive)	> 30 µM (inactive)
CC(=O)NCC(=O)N1[C@@H]2CC[C@H]1c1ccc(Nc3ncc(C(F)(F)F)c(NC4CCC4)n3)cc12 [PF-03814735]	3.64 µM (active)	> 30 µM (inactive)	–	> 30 µM (inactive)	–	–	> 30 µM (inactive)	> 30 µM (inactive)	> 30 µM (inactive)	> 30 µM (inactive)
CNC(=O)c1cc(Oc2ccc(NC(=O)Nc3cc(C(C)(C)C)nn3-c3ccc4ncccc4c3)c(F)c2)ccn1 [REBASTINIB]	–	> 30 µM (inactive)	> 30 µM (inactive)	> 30 µM (inactive)	> 30 µM (inactive)	9.24 µM (active)	> 30 µM (inactive)	> 30 µM (inactive)	> 30 µM (inactive)	> 30 µM (inactive)
N#CC[C@H](C1CCCC1)n1cc(-c2ncnc3[nH]ccc23)cn1 [RUXOLITINIB]	–	–	–	> 30 µM (inactive)	–	–	> 30 µM (inactive)	–	> 30 µM (inactive)	–

More lines, now with the values ahead:

Kd [1]	Kd [2]	Kd [3]	Kd [4]	Kd [5]	Kd [6]	Kd (ADP/ATP translocase 2)	Kd [7]	Kd (Septin-9)	Kd [8]	SMILES
> 30 µM (inactive)	> 30 µM (inactive)	> 30 µM (inactive)	> 30 µM (inactive)	> 30 µM (inactive)	> 30 µM (inactive)	> 30 µM (inactive)	> 30 µM (inactive)	> 30 µM (inactive)	–	Cc1csc(-c2nnc(Nc3ccc(Oc4ncccc4-c4ccnc(N)n4)cc3)c3ccccc23)c1 [AMG-900]
–	–	–	> 30 µM (inactive)	–	–	> 30 µM (inactive)	–	> 30 µM (inactive)	–	C[C@@H](Oc1cc(-n2cnc3ccc(CN4CCN(C)CC4)cc32)sc1C(N)=O)c1ccccc1C(F)(F)F [GSK-461364]
